From ChEMBL document CHEMBL2417551, “Structure-guided design of novel thiazolidine inhibitors of O-acetyl serine sulfhydrylase from Mycobacterium tuberculosis” (J Med Chem, 2013)

How the values were obtained:
[1] = target: O-acetylserine sulfhydrylase (Mycobacterium tuberculosis) (UniProt P9WP55); conditions: at 500 nM
Description: Inhibition of Mycobacterium tuberculosis N-terminal His-6-tagged recombinant CysK1 expressed in Escherichia coli BL21 (DE3) at 500 nM after 20 mins by spectrophotometric analysis

[2] = target: O-acetylserine sulfhydrylase (Mycobacterium tuberculosis, UniProt P9WP55)
Description: Inhibition of Mycobacterium tuberculosis N-terminal His-6-tagged recombinant CysK1 expressed in Escherichia coli BL21 (DE3) after 20 mins by spectrophotometric analysis

| SMILES | inhibition [1] [%] | IC50 [2] [µM] |
| --- | --- | --- |
| CCN1C(=O)/C(=C/c2ccc([N+](=O)[O-])cc2)S/C1=N\c1cccc(C(=O)O)c1 | 32.7 | – |
| CCN1C(=O)/C(=C/c2ccc(O)c(OC)c2)S/C1=N\c1cccc(C(=O)O)c1 | 75.6 | – |
| CN1C(=O)/C(=C/c2ccccc2Cl)S/C1=N\c1cccc(C(=O)O)c1 | 54.6 | – |
| CCN1C(=O)/C(=C/c2ccc(OCC(=O)OC)cc2)S/C1=N\c1cccc(C(C)=O)c1 | 8.2 | – |
| CN1C(=O)/C(=C/c2ccc[nH]2)S/C1=N\c1cccc(C(=O)O)c1 | 58.4 | – |
| CN1C(=O)/C(=C/c2ccccc2Br)S/C1=N\c1cccc(C(=O)O)c1 | 50.5 | – |
| CC(C)N1C(=O)/C(=C/c2ccccc2OCC(=O)O)S/C1=N\c1cccc(C(=O)O)c1 | 18.5 | – |
| CN1C(=O)/C(=C/c2ccc(OCc3ccccc3)cc2)S/C1=N\c1cccc(C(=O)O)c1 | 91.5 | 0.0256 |
| CCN1C(=O)/C(=C/c2cccc(C)c2)S/C1=N\c1cccc(C(=O)O)c1 | 38.5 | – |
| CCCN1C(=O)/C(=C/c2ccc(OCC(=O)O)cc2)S/C1=N\c1cccc(C(=O)O)c1 | 0 | – |
| CN1C(=O)/C(=C/c2ccccn2)S/C1=N\c1cccc(C(=O)O)c1 | 64.4 | – |
| CCN1C(=O)/C(=C/c2ccc(F)cc2)S/C1=N\c1cccc(C(=O)O)c1 | 68.3 | – |
| CCCCN1C(=O)/C(=C/c2ccc(OCC(=O)O)cc2)S/C1=N\c1cccc(C(C)=O)c1 | 24.1 | – |
| CN1C(=O)/C(=C/c2ccc(Cl)c(Cl)c2)S/C1=N\c1cccc(C(=O)O)c1 | 60 | – |
| CCN1C(=O)/C(=C/c2ccc(OCC(=O)O)cc2)S/C1=N\c1cccc(C(C)=O)c1 | 10 | – |
| CN1C(=O)/C(=C/c2cccc(C(F)(F)F)c2)S/C1=N\c1cccc(C(=O)O)c1 | 26.1 | – |
| C=CCN1C(=O)/C(=C/c2ccc(OCC(=O)OC)cc2)S/C1=N\c1cccc(C(=O)O)c1 | 19.9 | – |
| CCN1C(=O)/C(=C/c2ccccc2C)S/C1=N\c1cccc(C(=O)O)c1 | 47 | – |
| CCCN1C(=O)/C(=C/c2ccc(OCC(=O)OC)cc2)S/C1=N\c1cccc(C(C)=O)c1 | 0 | – |
| CCN1C(=O)/C(=C/c2cccc(O)c2)S/C1=N\c1cccc(C(=O)O)c1 | 52.8 | – |
| CCCN1C(=O)/C(=C/c2ccc(O)cc2)S/C1=N\c1cccc(C(C)=O)c1 | 10.7 | – |
| Cc1ccc(/C=C2\S/C(=N\c3cccc(C(=O)O)c3)N(C)C2=O)cc1 | 45.6 | – |
| CCN1C(=O)/C(=C/c2ccccc2OCc2ccccc2)S/C1=N\c1cccc(C(=O)O)c1 | 59.3 | – |

| SMILES | inhibition [1] [%] | IC50 [2] [µM] |
| --- | --- | --- |
| CCCN1C(=O)/C(=C/c2ccc(O)cc2)S/C1=N\c1cccc(C(=O)O)c1 | 95.1 | 0.0951 |
| C=CCN1C(=O)/C(=C/c2ccc(OCC(=O)OC)cc2)S/C1=N\c1cccc(C(C)=O)c1 | 10.9 | – |
| CN1C(=O)/C(=C/c2ccccc2)S/C1=N\c1cccc(C(=O)O)c1 | 52.2 | – |
| CCN1C(=O)/C(=C/c2ccc(OCC(=O)OC)cc2)S/C1=N\c1cccc(C(=O)O)c1 | 9.9 | – |
| C=CCN1C(=O)/C(=C/c2ccccc2OCC(=O)OC)S/C1=N\c1cccc(C(=O)O)c1 | 38.6 | – |
| COC(=O)COc1ccccc1/C=C1\S/C(=N\c2cccc(C(=O)O)c2)N(C)C1=O | 56.3 | – |
| CN1C(=O)/C(=C/c2cccc(O)c2)S/C1=N\c1cccc(C(=O)O)c1 | 56.8 | – |
| CN1C(=O)/C(=C/c2ccccc2O)S/C1=N\c1cccc(C(=O)O)c1 | 62.7 | – |
| CN1C(=O)/C(=C/c2ccc(C(F)(F)F)cc2)S/C1=N\c1cccc(C(=O)O)c1 | 72.1 | – |
| CN1C(=O)/C(=C/c2cnccc2C(F)(F)F)S/C1=N\c1cccc(C(=O)O)c1 | 34.4 | – |
| CCN1C(=O)/C(=C/c2ccc(O)cc2)S/C1=N\c1cccc(C(C)=O)c1 | 3.4 | – |
| CCCCN1C(=O)/C(=C/c2ccc(O)cc2)S/C1=N\c1cccc(C(C)=O)c1 | 25.1 | – |
| CCN1C(=O)/C(=C/c2cc(OC)c(OC)c(OC)c2)S/C1=N\c1cccc(C(=O)O)c1 | 37.4 | – |
| C=CCN1C(=O)/C(=C/c2ccc(O)cc2)S/C1=N\c1cccc(C(=O)O)c1 | 92.3 | 0.11 |
| CCN1C(=O)/C(=C/c2ccccc2OCC(=O)OC)S/C1=N\c1cccc(C(=O)O)c1 | 31 | – |
| COc1ccc(/C=C2\S/C(=N\c3cccc(C(=O)O)c3)N(C)C2=O)cc1 | 88.6 | 0.0339 |
| CCN1C(=O)/C(=C/c2ccc[nH]2)S/C1=N\c1cccc(C(=O)O)c1 | 32.5 | – |
| Cc1ccccc1/C=C1\S/C(=N\c2cccc(C(=O)O)c2)N(C)C1=O | 57.4 | – |
| CN1C(=O)/C(=C/c2ccc(Br)cc2)S/C1=N\c1cccc(C(=O)O)c1 | 70.5 | – |
| COC(=O)COc1ccc(/C=C2\S/C(=N\c3cccc(C(C)=O)c3)N(C(C)C)C2=O)cc1 | 7.4 | – |
| CCN1C(=O)/C(=C/c2c[nH]c3ccccc23)S/C1=N\c1cccc(C(=O)O)c1 | 61.9 | – |
| CN1C(=O)/C(=C/c2ccc([N+](=O)[O-])cc2)S/C1=N\c1cccc(C(=O)O)c1 | 51.8 | – |
| COc1ccc(/C=C2\S/C(=N\c3cccc(C(=O)O)c3)N(C)C2=O)cc1OC | 89.7 | 0.0543 |

| SMILES | inhibition [1] [%] | IC50 [2] [µM] |
| --- | --- | --- |
| CC(C)N1C(=O)/C(=C/c2ccc(OCC(=O)O)cc2)S/C1=N\c1cccc(C(=O)O)c1 | 12.6 | – |
| CN1C(=O)/C(=C/c2c[nH]c3ccccc23)S/C1=N\c1cccc(C(=O)O)c1 | 73.5 | – |
| CCN1C(=O)/C(=C/c2ccco2)S/C1=N\c1cccc(C(=O)O)c1 | 29.2 | – |
| CCN1C(=O)/C(=C/c2ccccc2)S/C1=N\c1cccc(C(=O)O)c1 | 39.3 | – |
| CC(=O)c1cccc(/N=C2\S/C(=C\c3ccc(O)cc3)C(=O)N2C(C)C)c1 | 8.2 | – |
| CN1C(=O)/C(=C/c2ccccc2OCc2ccccc2)S/C1=N\c1cccc(C(=O)O)c1 | 44.8 | – |
| CCN1C(=O)/C(=C/c2ccc(OC)cc2)S/C1=N\c1cccc(C(=O)O)c1 | 56.2 | – |
| CCN1C(=O)/C(=C/c2ccc(Cl)cc2)S/C1=N\c1cccc(C(=O)O)c1 | 54.4 | – |
| C=CCN1C(=O)/C(=C/c2ccc(O)cc2)S/C1=N\c1cccc(C(C)=O)c1 | 28.9 | – |
| COC(=O)COc1ccccc1/C=C1\S/C(=N\c2cccc(C(=O)O)c2)N(C(C)C)C1=O | 55.7 | – |
| CCN1C(=O)/C(=C/c2ccc(C(F)(F)F)cc2)S/C1=N\c1cccc(C(=O)O)c1 | 50.8 | – |
| CN1C(=O)/C(=C/c2ccco2)S/C1=N\c1cccc(C(=O)O)c1 | 30.1 | – |
| CCCN1C(=O)/C(=C/c2ccc(OCC(=O)OC)cc2)S/C1=N\c1cccc(C(=O)O)c1 | 0 | – |
| COc1cc(/C=C2\S/C(=N\c3cccc(C(=O)O)c3)N(C)C2=O)cc(OC)c1OC | 89.4 | 0.0699 |
| CCN1C(=O)/C(=C/c2ccccc2O)S/C1=N\c1cccc(C(=O)O)c1 | 53.2 | – |
| CN1C(=O)/C(=C/c2ccc(Cl)cc2)S/C1=N\c1cccc(C(=O)O)c1 | 59.7 | – |
| CCCCN1C(=O)/C(=C/c2ccc(OCC(=O)OC)cc2)S/C1=N\c1cccc(C(=O)O)c1 | 16.4 | – |
| CCN1C(=O)/C(=C/c2ccc(Cl)c(Cl)c2)S/C1=N\c1cccc(C(=O)O)c1 | 37.8 | – |
| CC(C)N1C(=O)/C(=C/c2ccc(O)cc2)S/C1=N\c1cccc(C(=O)O)c1 | 90.3 | 0.141 |
| CCCCN1C(=O)/C(=C/c2ccc(OCC(=O)OC)cc2)S/C1=N\c1cccc(C(C)=O)c1 | 0 | – |
| C=CCN1C(=O)/C(=C/c2ccc(OCC(=O)O)cc2)S/C1=N\c1cccc(C(C)=O)c1 | 0 | – |
| CCN1C(=O)/C(=C/c2ccc(Cl)cc2Cl)S/C1=N\c1cccc(C(=O)O)c1 | 45.4 | – |
| Cc1cccc(/C=C2\S/C(=N\c3cccc(C(=O)O)c3)N(C)C2=O)c1 | 49.6 | – |

| SMILES | inhibition [1] [%] | IC50 [2] [µM] |
| --- | --- | --- |
| CCN1C(=O)/C(=C/c2ccc(N(C)C)cc2)S/C1=N\c1cccc(C(=O)O)c1 | 52.4 | – |
| CCCN1C(=O)/C(=C/c2ccc(OCC(=O)O)cc2)S/C1=N\c1cccc(C(C)=O)c1 | 0 | – |
| CCN1C(=O)/C(=C/c2ccc(Br)cc2)S/C1=N\c1cccc(C(=O)O)c1 | 60.9 | – |
| CN1C(=O)/C(=C/c2ccc(O)cc2)S/C1=N\c1cccc(C(=O)O)c1 | 92.6 | 0.0626 |
| C=CCN1C(=O)/C(=C/c2ccccc2OCC(=O)O)S/C1=N\c1cccc(C(=O)O)c1 | 25.4 | – |
| CCN1C(=O)/C(=C/c2ccccc2Br)S/C1=N\c1cccc(C(=O)O)c1 | 54.1 | – |
| C=CCN1C(=O)/C(=C/c2ccc(OCC(=O)O)cc2)S/C1=N\c1cccc(C(=O)O)c1 | 1.4 | – |
| CCN1C(=O)/C(=C/c2cccc(C(F)(F)F)c2)S/C1=N\c1cccc(C(=O)O)c1 | 26 | – |
| CC(=O)c1cccc(/N=C2\S/C(=C\c3ccc(OCC(=O)O)cc3)C(=O)N2C(C)C)c1 | 10.2 | – |
| CCN1C(=O)/C(=C/c2ccc(OCC(=O)O)cc2)S/C1=N\c1cccc(C(=O)O)c1 | 36.9 | – |
| CCN1C(=O)/C(=C/c2ccc(OCc3ccccc3)cc2)S/C1=N\c1cccc(C(=O)O)c1 | 81.1 | – |
| CCCCN1C(=O)/C(=C/c2ccc(O)cc2)S/C1=N\c1cccc(C(=O)O)c1 | 78.5 | – |
| CCN1C(=O)/C(=C/c2ccccc2OC)S/C1=N\c1cccc(C(=O)O)c1 | 59.5 | – |
| CCN1C(=O)/C(=C/c2ccccc2Cl)S/C1=N\c1cccc(C(=O)O)c1 | 43.3 | – |
| CCN1C(=O)/C(=C/c2ccc(C(C)C)cc2)S/C1=N\c1cccc(C(=O)O)c1 | 49.6 | – |
| CCN1C(=O)/C(=C/c2cnccc2C(F)(F)F)S/C1=N\c1cccc(C(=O)O)c1 | 46 | – |
| CC(C)c1ccc(/C=C2\S/C(=N\c3cccc(C(=O)O)c3)N(C)C2=O)cc1 | 54 | – |
| COC(=O)COc1ccc(/C=C2\S/C(=N\c3cccc(C(=O)O)c3)N(C(C)C)C2=O)cc1 | 0 | – |
| CCN1C(=O)/C(=C/c2ccc(C)cc2)S/C1=N\c1cccc(C(=O)O)c1 | 41.7 | – |
| CCN1C(=O)/C(=C/c2ccccc2OCC(=O)O)S/C1=N\c1cccc(C(=O)O)c1 | 15.9 | – |
| CCCCN1C(=O)/C(=C/c2ccc(OCC(=O)O)cc2)S/C1=N\c1cccc(C(=O)O)c1 | 0 | – |
| CCN1C(=O)/C(=C/c2ccccn2)S/C1=N\c1cccc(C(=O)O)c1 | 38.7 | – |
| CN1C(=O)/C(=C/c2ccc(Cl)cc2Cl)S/C1=N\c1cccc(C(=O)O)c1 | 57.4 | – |
